Source: patent US20100285959A1, “HERBICIDAL MIXTURES” (priority 2006, published 2010)

Key:
winter barley (HORVW) = experiment: Test 22 growth chamber, postemergence; format: in vivo, Hordeum vulgare; settings: 25 DAA
Method: (§1) A test was conducted to evaluate the effects on winter barley (HORVW, Hordeum vulgare L.), winter wheat (TRZAW, Triticum aestivum L.), and several weed species of mixtures of Compound 2 with the commercial herbicides (2,4-dichlorophenoxy)acetic acid (2,4-D) and (4-chloro-2-methylphenoxy)acetic acid (MCPA), auxin mimics. […] Plants were treated postemergence at the 2-4 leaf growth stage, except KCHSC, SASKR and STEME which were in the 4-8 leaf growth stage. Each treatment was replicated one time. […] Plants were watered as needed. […] Results are from single replicates.

field violet (VIOAR) = experiment: Test 23 growth chamber, postemergence; format: in vivo, Viola arvensis; settings: 21 DAA
Method: as §1, with “stage,” for “stage, except KCHSC, SASKR”, “each” for “STEME which were in the 4-8 leaf growth stage. Each”, “three times.” for “one time.”, “means of the three” for “from single”

[1] = tested on: Florida beggarweed (DEDTO); experiment: Test 12 field trial, preemergence; format: in vivo, Desmodium tortuosum; design: scale not given here; settings: Cpd 2 or Cpd 1 62 g a.i./ha, Diuron 2000 g a.i./ha
From the text: In early-mid spring season, corn seeds (hybrid ‘Pioneer 3041’) were planted 5 cm deep and sugarcane nodes (variety RB-72.454) were planted 10 cm deep in separate plots in a clay soil having 2.6% organic matter and a pH of 5.6. Plots were 24 m long by 1.5 m wide with rows spaced 80 cm (corn) or 140 cm (sugarcane) apart. Corn seeds were spaced 15 cm apart and sugarcane nodes were spaced 10 cm apart within the rows. At the same time, weed seeds were broadcast over the surface of separate plots without a crop, one weed species per plot. The weed plots were rotary tilled to incorporate the weed seeds to a variety of depths. The field was managed using conventional tillage practices.

corn (ZEAMD) [2] = experiment: Test 9 field trial, emerged weeds before corn planting; format: in vivo, Zea mays ssp. indentata; settings: 57 DAA; g a.i./ha: Cpd 2 100, Glyphosate 1540, Paraquat 1150
Method: (§2) Corn seeds (hybrid ‘Pioneer 34M91 RR’) were planted in mid spring season, about 3.8 cm deep in a silty clay loam soil having a pH of 6.7. Plots were 9.1 m long by 3.0 m. The field was managed using no-till practices. […] Compound 2 and paraquat treatments, alone and in combination, also included a surfactant. Glyphosate, alone and with Compound 2, included ammonium sulfate in the treatment mixture. […] The effects on the weeds in the treated plots and untreated control plots were recorded 7, 14, 23, 30 and 57 days after application. Most of the weed species could not be evaluated at every timing. Corn response was only evaluated 57 days after application. […] Results are the means of the three replicates.

prickly lettuce (LACSE) = experiment: as above; format: in vivo, Lactuca serriola; settings: g a.i./ha: Cpd 2 100, Glyphosate 1540, Paraquat 1150
Method: as §2

[3] = tested on: Pennsylvania smartweed (POLPY); experiment: Test 7 field trial, preemergence; format: in vivo, Polygonum pensylvanicum
Method: (§3) Plots were 7.6 m long by 3.0 m wide with rows spaced 76 cm apart. Seeds were spaced 15 cm apart within the rows. The field was managed using conventional tillage practices. […] Wild radish was evaluated 14 and 28 days after application. […] Results are the means of the three replicates.

[4] = tested on: Virginia pepperweed (LEPVI); experiment: Test 3 field trial, emerged weeds before corn planting; format: in vivo, Lepidium virginicum; settings: Cpd 2 100, glyphosate 1540, paraquat 1150 g a.i./ha, alone or combined
From the text: (§4) Corn seeds (hybrid ‘Pioneer 33J56’) were planted in early spring season, 3.8 cm deep in a silt loam soil having 2.4% organic matter and a pH of 6. Plots were 6.1 m long by 2.7 m wide with rows spaced 91.4 cm apart. The field was managed using no-till practices. […] Compound 2 and paraquat treatments, alone and in combination, also included a surfactant. Glyphosate, alone and with Compound 2, included ammonium sulfate in the treatment mixture. […] The effects on the weeds in the treated plots and untreated control plots were recorded 30, 42, 46 and 68 days after application. Most of the weed species could not be evaluated at every timing. Corn response was not evaluated because the growth was highly variable depending on the efficacy of the weed control treatments. […] Results are the means of the three replicates.

[5] = tested on: henbit deadnettle (LAMAM); experiment: Test 9 field trial, emerged weeds before corn planting; format: in vivo, Lamium amplexicaule; settings: g a.i./ha: Cpd 2 100, Glyphosate 1540, Paraquat 1150
Method: as §2

red deadnettle (LAMPU) = experiment: as above; format: in vivo, Lamium purpureum; settings: g a.i./ha: Cpd 2 100, Glyphosate 1540, Paraquat 1150
Method: as §2

[6] = tested on: common lambsquarters (CHEAL); experiment: Test 3 field trial, emerged weeds before corn planting; format: in vivo, Chenopodium album; settings: 68 DAA; Cpd 2 100, glyphosate 1540, paraquat 1150 g a.i./ha, alone or combined
From the text: as §4

corn (ZEAMD) [7] = experiment: Test 7 field trial, preemergence; format: in vivo, Zea mays ssp. indentata
Method: as §3

[8] = tested on: common lambsquarters (CHEAL); experiment: Test 9 field trial, emerged weeds before corn planting; format: in vivo, Chenopodium album; settings: 57 DAA; g a.i./ha: Cpd 2 100, Glyphosate 1540, Paraquat 1150
Method: as §2

common chickweed (STEME) = experiment: as above; format: in vivo, Stellaria media; settings: g a.i./ha: Cpd 2 100, Glyphosate 1540, Paraquat 1150
Method: as §2

[9] = 2,4-D or MCPA alone 250 g a.i./ha

SMILES: O=C(O)COc1ccc(Cl)cc1Cl [2,4-D, (2,4-dichlorophenoxy)acetic acid]
- Postemergence HORVW Obs (winter barley (HORVW); [9]): 10
- Postemergence VIOAR Obs (field violet (VIOAR); [9]): 63

SMILES: Nc1nc(C2CC2)nc(C(=O)O)c1Cl [Compound 1, 6-amino-5-chloro-2-cyclopropyl-4-pyrimidinecarboxylic acid]
- DEDTO Obs ([1]; 15 DAA): 95
- DEDTO Obs ([1]; 29 DAA): 75
- DEDTO Obs ([1]; 48 DAA): 60
- DEDTO Obs ([1]; 61 DAA): 60

SMILES: COC(=O)c1nc(C2CC2)nc(N)c1Cl [Compound 2, methyl 6-amino-5-chloro-2-cyclopropyl-4-pyrimidinecarboxylate]
- ZEAMD Obs (corn (ZEAMD) [2]): 0%
- LACSE Obs (prickly lettuce (LACSE); 7 DAA): 58%
- LACSE Obs (prickly lettuce (LACSE); 14 DAA): 63%
- LACSE Obs (prickly lettuce (LACSE); 23 DAA): 70%
- LACSE Obs (prickly lettuce (LACSE); 30 DAA): 88%
- LACSE Obs (prickly lettuce (LACSE); 57 DAA): 98%
- Postemergence HORVW Obs (winter barley (HORVW); Cpd 2 alone 4 g a.i./ha): 30
- Postemergence HORVW Obs (winter barley (HORVW); Cpd 2 alone 8 g a.i./ha): 35
- Postemergence HORVW Obs (winter barley (HORVW); Cpd 2 alone 16 g a.i./ha): 40
- Postemergence VIOAR Obs (field violet (VIOAR); Cpd 2 alone 4 g a.i./ha): 60
- Postemergence VIOAR Obs (field violet (VIOAR); Cpd 2 alone 8 g a.i./ha): 63
- Postemergence VIOAR Obs (field violet (VIOAR); Cpd 2 alone 16 g a.i./ha): 72
- DEDTO Obs ([1]; 15 DAA): 100
- DEDTO Obs ([1]; 29 DAA): 70
- DEDTO Obs ([1]; 48 DAA): 80
- DEDTO Obs ([1]; 61 DAA): 60
- POLPY Obs ([3]; 14 DAA, 125 g a.i./ha): 77%
- POLPY Obs ([3]; 14 DAA, 250 g a.i./ha): 95%
- POLPY Obs ([3]; 14 DAA, 500 g a.i./ha): 97%
- POLPY Obs ([3]; 28 DAA, 125 g a.i./ha): 70%
- POLPY Obs ([3]; 28 DAA, 250 g a.i./ha): 93%
- POLPY Obs ([3]; 28 DAA, 500 g a.i./ha): 97%
- POLPY Obs ([3]; 62 DAA, 125 g a.i./ha): 40%
- POLPY Obs ([3]; 62 DAA, 500 g a.i./ha): 100%
- LEPVI Obs ([4]; 30 DAA): 69%
- LEPVI Obs ([4]; 42 DAA): 18%
- LEPVI Obs ([4]; 46 DAA): 23%
- LAMAM Obs ([5]; 7 DAA): 22%
- LAMAM Obs ([5]; 14 DAA): 27%
- LAMAM Obs ([5]; 23 DAA): 50%
- LAMAM Obs ([5]; 30 DAA): 65%
- LAMAM Obs ([5]; 57 DAA): 89%
- LAMPU Obs (red deadnettle (LAMPU); 7 DAA): 45%
- LAMPU Obs (red deadnettle (LAMPU); 14 DAA): 23%
- LAMPU Obs (red deadnettle (LAMPU); 23 DAA): 58%
- LAMPU Obs (red deadnettle (LAMPU); 30 DAA): 65%
- CHEAL Obs [6]: 100%
- ZEAMD Obs (corn (ZEAMD) [7]; hybrid Pioneer 36B10, corn (Zea mays ssp. indentata), in vivo, 62 days after application): 0%
- CHEAL Obs [8]: 95%
- STEME Obs (common chickweed (STEME); 7 DAA): 22%
- STEME Obs (common chickweed (STEME); 14 DAA): 13%
- STEME Obs (common chickweed (STEME); 23 DAA): 3%
- STEME Obs (common chickweed (STEME); 30 DAA): 0%
- STEME Obs (common chickweed (STEME); 57 DAA): 0%

SMILES: O=C(O)CNCP(=O)(O)O [Glyphosate]
- ZEAMD Obs (corn (ZEAMD) [2]): 0%
- LACSE Obs (prickly lettuce (LACSE); 7 DAA): 45%
- LACSE Obs (prickly lettuce (LACSE); 14 DAA): 87%
- LACSE Obs (prickly lettuce (LACSE); 23 DAA): 99%
- LACSE Obs (prickly lettuce (LACSE); 30 DAA): 100%
- LACSE Obs (prickly lettuce (LACSE); 57 DAA): 100%
- LEPVI Obs ([4]; 30 DAA): 98%
- LEPVI Obs ([4]; 42 DAA): 82%
- LEPVI Obs ([4]; 46 DAA): 98%
- LAMAM Obs ([5]; 7 DAA): 25%
- LAMAM Obs ([5]; 14 DAA): 37%
- LAMAM Obs ([5]; 23 DAA): 79%
- LAMAM Obs ([5]; 30 DAA): 95%
- LAMAM Obs ([5]; 57 DAA): 66%
- LAMPU Obs (red deadnettle (LAMPU); 7 DAA): 55%
- LAMPU Obs (red deadnettle (LAMPU); 14 DAA): 60%
- LAMPU Obs (red deadnettle (LAMPU); 23 DAA): 77%
- LAMPU Obs (red deadnettle (LAMPU); 30 DAA): 79%
- LAMPU Obs (red deadnettle (LAMPU); 57 DAA): 95%
- CHEAL Obs [6]: 0%
- CHEAL Obs [8]: 0%
- STEME Obs (common chickweed (STEME); 7 DAA): 42%
- STEME Obs (common chickweed (STEME); 14 DAA): 84%
- STEME Obs (common chickweed (STEME); 23 DAA): 93%
- STEME Obs (common chickweed (STEME); 30 DAA): 100%
- STEME Obs (common chickweed (STEME); 57 DAA): 99%

SMILES: CCc1cccc(C)c1N(C(=O)CCl)[C@@H](C)COC [S-Metolachlor, S-metolachlor, reference compound]
- POLPY Obs ([3]; 14 DAA, 1000 g a.i./ha): 60%
- POLPY Obs ([3]; 28 DAA, 1000 g a.i./ha): 45%
- POLPY Obs ([3]; 62 DAA, 1000 g a.i./ha): 10%
- ZEAMD Obs (corn (ZEAMD) [7]; 14 DAA, 1000 g a.i./ha): 10%
- ZEAMD Obs (corn (ZEAMD) [7]; 28 DAA, 1000 g a.i./ha): 8%
- ZEAMD Obs (corn (ZEAMD) [7]; 62 DAA, 1000 g a.i./ha): 0%
